US4681887A, “Pharmaceutical compositions with a neuroleptic action and process for preparing same” (Richter Gedeon Vegyeszeti Gyar Rt., priority 1985, dated 1987)

Assays:
catalepsy = experiment: Investigation of the cataleptogenic effect; type: in vivo, Hannover Wistar rats; conditions: Rattus norvegicus, po; rats, observed hourly for 5 hours
Protocol: (§1) The neuroleptic effect of the compounds was shown by investigations on the central nervous system of Hannover Wistar rats and CFLP mice. The compounds to be tested were orally administered in a dose of 5 ml/kg of body-weight to rats or in a dose of 10 ml/kg of body-weight to mice, respectively at 60 minutes before beginning the experiment.
(§2) The compounds to be tested were suspended in TWEEN 80 and diluted to the desired concentration by adding physiological saline solution.
(§3) The results are expressed either as percentages, or ED50 values calculated by using the probit analysis are given together with the 95% fiducial (confidential) limits (J. T. Litchfield and F. Wilcoxon: J. Pharmacol. 96, 99 (1949)).
The method of G. Stille and H. Launer Arzneim.-forsch. 21, 252 (1971) was used for this study.
Male rats weighing 90 to 110 g (n=5) were treated with different doses of the compounds to be tested, then the number of the animals showing catalepsy was hourly observed for 5 hours.

[1] = test system: hypermotility induced by L-Dopa; experiment: Inhibition of the hypermotility induced by L-Dopa; type: in vivo, CFLP mice; conditions: mice, 30 mg/kg p.o., nialamide 40 mg/kg and L-Dopa 100 mg/kg i.p., difference from control
Protocol: as §1, §2, §3
The method of N. P. Plotnikoff et al. ("The Thyroid Axis, Drugs and Behavior", Raven Press, N.Y., pp. 103-113 (1974)) was used for this study.
Male mice (n=15) weighing 18 to 21 g were intraperitoneally treated with 40 mg/kg of nialamide and after 60 minutes, the substances to be tested were administered in a dose of 30 mg/kg. Thirty minutes later, 100 mg/kg of L-Dopa were intraperitoneally administered. The locomotor activity of the animals was measured by using an LKB Animex DSE motimeter in each 30th minute for 2 hours. The results are given as the percentage of the difference from the control.

apomorphine hypothermia = experiment: Investigation of the apomorphine hypothermia-reverting effect; type: in vivo, Hannover Wistar rats; conditions: rats, 10 mg/kg p.o., apomorphine 5 mg/kg i.p.
Protocol: as §1, §2, §3
The method of A. Barnett et al. (Arch. Int. Pharmacodyn. Ther. 198, 242 (1972)) was used for this study.
The rectal temperature of rats (n=5) was determined by using an Ellab thermometer (E3) before administering the substances to be tested in a dose of 10 mg/kg. Thereafter, 5 mg/kg of apomorphine were intraperitoneally given and the temperature of the animals was hourly registered for 3 hours.

[2] = test system: amphetamine group toxicity; experiment: Investigation of the amphetamine group toxicity; type: in vivo, CFLP mice; conditions: d-amphetamine 25 mg/kg i.p., 24 hours
Protocol: as §1, §2, §3
The method of C. D. Proctor et al. (Arch. Int. Pharmacodyn. Ther. 163, 74 (1966)) was used for this study.
The examination was carried out on mice of both sexes weighing 22 to 27 g (n=5). At the […], d-amphetamine in a dose of 25 mg/kg was intraperitoneally given to the animals tightly closed together (25 cm^2 /mouse) and the percentage of the perished animals was registered after 24 hours.

α1-adrenergic receptor = α1-adrenergic receptor binding (3H-prazosine, rat cortex); parameters: species or system Hannover Wistar rats; conditions: for IC50: 3H-prazosine, rat cortex, 23° C., 30 minutes; for side-effect on the α1 receptors relative to chloropromazine: from IC50 on α1 receptors
Protocol: Hannover Wistar rats were decapitated, their cortex were prepared and homogenized in a 20-fold volume of a buffer solution (50 mmoles of TRIS HCl, at pH 8). The membrane was centrifuged at 45000 g twice for 15 minutes and then suspended in the buffer in a concentration of 30 ml/g (in a protein concentration of 1.7 to 1.8 mg/ml).
After an incubation at 23° C. for 30 minutes, the samples were filtered through a Whatman GF/B filter and washed 4 times with 4 ml of buffer solution each.
For the determination of the non-specific binding, 10 μmoles of phentolamine were used.
(§4) On using both above-mentioned receptor binding methods, a scintillation solution was applied onto the filter paper in the cuvet and the isotopic radioactivity was measured on the next day.

D-2 receptors = target: T1, D-2 receptors (Rattus norvegicus, UniProt P61169); experiment: D-2 receptor binding (3H-spiroperidol, rat striatum); parameters: species or system Hannover Wistar rats; conditions: for D-2/α1 Selectivity ratio: ratio of IC50 D-2 to IC50 α1
T1 construct: Hannover Wistar rats were decapitated and the striatum from their cortex was prepared; from tissue; host or cells: striatum membranes of Hannover Wistar rats
T1 sequence (P61169 whole entry): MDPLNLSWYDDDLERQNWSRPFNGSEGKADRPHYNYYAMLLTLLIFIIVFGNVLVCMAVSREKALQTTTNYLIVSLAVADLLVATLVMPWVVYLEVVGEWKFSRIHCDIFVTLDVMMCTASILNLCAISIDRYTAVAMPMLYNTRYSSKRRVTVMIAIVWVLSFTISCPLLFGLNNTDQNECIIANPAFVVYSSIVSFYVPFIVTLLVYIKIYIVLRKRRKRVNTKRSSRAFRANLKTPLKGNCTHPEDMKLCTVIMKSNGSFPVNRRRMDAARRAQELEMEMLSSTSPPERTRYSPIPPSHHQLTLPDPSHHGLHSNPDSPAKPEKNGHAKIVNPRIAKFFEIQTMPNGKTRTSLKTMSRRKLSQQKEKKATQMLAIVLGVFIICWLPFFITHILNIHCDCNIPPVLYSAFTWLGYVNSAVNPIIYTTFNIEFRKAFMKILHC
Protocol: Hannover Wistar rats were decapitated and the striatum from their cortex was prepared. The striata were homogenized in a 10-fold volume of a cold buffer solution (50 mmoles of TRIS HCl, 120 mmoles of NaCl, 2 mmoles of KCl, 1 mmoles of MgCl2 and 5 mmoles of CaCl2, at pH 7.4) and centrifuged at 40000 g for 15 minutes. The thus-obtained sediment was suspended in the buffer in a concentration of 100 ml/g (in a protein concentration of 0.7 to 0.8 mg/ml).
After an incubation at 37° C. for 15 minutes, the samples were filtered through a Whatman GF/B filter and washed 2 times with 5 ml of buffer solution each.
For the determination of the non-specific binding, 1 μmole of (+)-butaclamol was used.
as §4

[3] = test system: conditioned avoidance response; experiment: Inhibition of the conditioned avoidance response (CAR inhibition); type: in vivo, Hannover Wistar rats; conditions: Rattus norvegicus, po, 1 h; rats, p.o., 60 minutes before experiment
Protocol: as §1, §2, §3
Male rats weighing 140 to 160 g were conditioned for 10 days in an automated six-channel shuttle box (D. Bovet et. al.: Neuropsychopharmacology, Vol. 2., p. 142 Elsevier Publishing House, Amsterdam, 1961).
Each one session consisted of 6 cycles; the time of a partial cycle was: 15 seconds for intersignal time, 15 seconds for light stimulus, 10 seconds for light stimulus and footshock (0.8 mA). […]

asphyxial anoxia = experiment: Investigation of the asphyxial anoxia; type: in vivo, CFLP mice; conditions: Mus musculus, po, 1 h; mice, survival time longer by 30% than control counted as protected
Protocol: as §1, §2, §3
The method of C. Caillard et al. (Life Sci. 16, 1607 (1975)) was used for this study.
Mice (n=5) of both sexes weighing 22 to 24 g were starved for 16 hours, then treated with 50 mg/kg dose of the substances to be tested. After 60 minutes, the animals were placed in tightly closed glass bottles of 100 ml volume and the survival time was registered.

central dopaminergic = conditions: Acta Pharm. Suec. 1983, 111-119; cited from earlier work

SMILES	ED50 (catalepsy) [mg/kg]	L-Dopa induced hypermot. inhibition % (60 min.) [1] [%]	L-Dopa induced hypermot. inhibition % (120 min.) [1] [%]	Apomorphine hypothermia, difference of temperature change vs apomorphine (60 min.) (apomorphine hypothermia)	Apomorphine hypothermia, difference of temperature change vs apomorphine (120 min.) (apomorphine hypothermia)	IC50 (α1-adrenergic receptor) [nM]	IC50 (D-2 receptors) [nM]	D-2/α1 Selectivity ratio (D-2 receptors)	ED50 [3] [mg/kg]	ED50 (asphyxial anoxia) [mg/kg]	side-effect on the α1 receptors relative to chloropromazine (α1-adrenergic receptor)	central dopaminergic agonist activity (central dopaminergic)	also measured
CCN(CC)C(=O)NC1C=C2c3cccc4[nH]c(Br)c(c34)CC2N(C)C1 (stereo not drawn) [2-Bromolysuride, reference compound]	3.3	–	–	–	–	–	–	–	–	–	–	–	–
CN1C[C@H](CO)C=C2c3cccc4[nH]c(Cl)c(c34)C[C@H]21.O=C(O)/C=C\C(=O)O [2-Chlorolysergol maleate]	13.6	-47	-50	+0.9 °C	+1.1 °C	45.4	5.3	0.12	3.4	39.8	–	–	ED50 ([2]; Mus musculus, po, mice, p.o., read-out: Amphetamine group tox. ED50): 28.9 mg/kg
CN(C)CCCN1c2ccccc2Sc2ccc(Cl)cc21 [Chloropromazine, reference compound]	–	–	–	–	–	15.8	–	–	–	–	–	–	–
CN1C[C@H](CO)C=C2c3cccc4[nH]c(Br)c(c34)C[C@H]21 [2-bromolysergol]	–	–	–	–	–	–	–	–	–	–	somewhat lower	inactive	–
CN1C[C@H](CO)C=C2c3cccc4[nH]c(Br)c(c34)C[C@H]21.O=C(O)/C=C\C(=O)O [2-Bromolysergol maleate]	10.8	-60	-65	+1.9 °C	+2.4 °C	24.1	76.5	3.2	2.7	35.6	–	–	Amphetamine group tox., mice died (footnote *) ([2]; 20 mg/kg p.o.): 10%
CN1C[C@H](CO)C=C2c3cccc4[nH]c(Cl)c(c34)C[C@H]21 [2-chlorolysergol]	–	–	–	–	–	–	–	–	–	–	one-third	inactive	D-2/α1 selectivity ratio relative to chloropromazine (D-2 receptors): ten times lower; dopaminergic (D-2) activity relative to chloropromazine (D-2 receptors; from IC50 on D-2 receptors): three times as high
